Test results published in patent US5066664A, “2-(hydroxy-2-alkylphenylamino)-oxazolines and thiazolines as anti-glaucoma and vasoconstrictive agents” (Allergan, Inc., priority 1990, dated 1991).
Structures can show the parent of a compound that is named as a salt. Where two headings read alike, the source gives them in different places.

What was measured:
[1] = tested on: New Zealand white rabbit eyes; assay: Intraocular pressure (anti-glaucoma) assay in unanesthetized rabbits, topical unilateral administration; format: in vivo; conditions: for Maximum Difference in Intraocular Pressure After Solution Administration, Ipsilateral (Treated) Eye: 0.1% (W/V) in distilled water, single 50 microliter drop topically to one eye; for Maximum Difference in Intraocular Pressure After Solution Administration, Contralateral (Untreated) Eye: single 50 microliter drop to the other eye, contralateral (untreated) eye received saline
Protocol: The anti-glaucoma activity (ability to maintain or reduce intraocular pressure) of the compounds of the present invention was confirmed by the following assay procedure. This assay procedure is generally recognized in the art to provide pertinent information with respect to the anti-glaucomaactivity of the formulations assayed. Thus, each of the compounds of the invention to be tested was dissolved in distilled water at a concentration of 0.1% (W/V). Each of these solutions was administered topically and unilaterally to one eye of a drug-naive, unanesthetized New Zealand white rabbit in a single 50 microliter drop. The contralateral eye received an equal volume of saline prior to determining the intraocular pressure after the mixture was administered. Also, approximately 10 microliters of 0.5% (W/V) proparacine (topical anesthetic) was applied to the corneas of each of the rabbits before determining intraocular pressure. As a control test, six (6) other drug-naive, unanesthetized New Zealand white rabbits were treated and tested as described above except that no compound of the invention was included in the solutions administered to the eyes.
The intraocular pressure was determined in both eyes of each rabbit both before and after the solutions were administered. Such intraocular pressure determinations were made in the conventional manner using conventional equipment.

[2] = tested on: alpha 1 adrenergic receptors; assay: Rabbit Aorta: Alpha 1 adrenergic receptor assay (isolated thoracic aorta rings, tension); conditions: 37° C., cumulative addition
[3] = target: alpha 1 adrenergic receptors; conditions: control substance; Shayes and Green, J. Pharmacol. Exp. Ther. 1971, Vol 180, pp 317-325; cited from earlier work

Row | SMILES | Maximum Difference in Intraocular Pressure After Solution Administration, Ipsilateral (Treated) Eye [1] | Maximum Difference in Intraocular Pressure After Solution Administration, Contralateral (Untreated) Eye ([1]; 0.1% (W/V)) | reduction of intraocular pressure in the contralateral eye compared with the ipsilateral eye ([1]; result in words, New Zealand white rabbit, 0.1% (W/V)) | EC50 [2] | EC50 [3]
1 | Cc1c(O)cccc1NC1=NCCO1 [Compound 1, 2-(3-Hydroxy-2-methylphenylamino)-Oxazoline, hydrochloride] | -3.3 ± 1.0 mm Hg | -7.3 ± 1.0 mm Hg | the reduction in the contralateral eye is greater than in the ipsilateral eye | 0.602 ± 0.108 µM | 
2 | Cc1c(O)ccc(NC2=NCCO2)c1C.Cl [Compound 2, 2-(2,3-Dimethyl-4-hydroxyphenylamino)-oxazoline, hydrochloride] | -3.9 ± 1.9 mm Hg | -3.3 ± 0.5 mm Hg |  | 0.0199 ± 0.0156 µM | 
3 | CNC[C@H](O)c1cccc(O)c1 [L-phenylephrine] |  |  |  |  | 0.182 µM
